From patent publication US11578130B2, “Regulatable chimeric antigen receptor” (Novartis AG, priority 2013, dated 2023)
Like-named read-outs stand apart in the source and are kept apart here.

Tests used:
[1] = system: A/H1N1/California/07/2009 influenza; test: Serum anti-influenza IgG and IgM levels before and 4 weeks post influenza vaccination; type: in vivo, human; conditions: RAD001 versus placebo cohorts, Kruskal-Wallis rank sum test
Protocol: FIGS. 30A and 30B are graphic representations of IgG and IgM levels before and after influenza vaccination. Levels of anti-A/H1N1/California/07/2009 influenza IgG and IgM were measured in serum obtained from subjects before and 4 weeks post influenza vaccination.

JNL cells = test: Single vector CD19 RCAR constructs in JNL cells, NFAT reporter activation by dimerization molecule; type: cell-based; conditions: nM to sub-nM doses
Source text: The constructs and viral particles were made and tested essentially as described in Example 11. Viral particles were introduced into JNL cells and evaluated for activity essentially as described in Example 1 except that the target was CD19 (as opposed to EGFRviii).
Construct 143775 was introduced into cells and the affect of dimerization molecule concentration on activation evaluated essentially as described in Example 14.

[2] = system: H1N1 A/California/07/2009; test: Clinical trial: hemagglutination inhibition titers and seroconversion, vaccine strain A/H1N1; type: in vivo, human
Protocol: (§1) The trial was observer-blind because the placebo in the RAD001 0.5 mg daily and 20 mg weekly cohorts differed slightly from the RAD001 tablets in those cohorts. […] The treatment duration for all cohorts was 6 weeks during which time subjects underwent safety evaluations in the clinic every 2 weeks. After subjects had been dosed for 4 weeks, RAD001 steady state levels were measured pre-dose and at one hour post dose. After completing the 6 week course of study drug, subjects were given a 2 week drug free break to reverse any possible RAD001-induced immunosuppression, and then were given a 2012 seasonal influenza vaccination (Agrippal®, Novartis Vaccines and Diagnostics, Siena, Italy) containing the strains H1N1 A/California/07/2009, H3N2 A/Victoria/210/2009, B/Brisbane/60/2008. Four weeks after influenza vaccination, subjects had serum collected for influenza titer measurements. Antibody titers to the 3 influenza vaccine strains as well as to 2 heterologous strains (A/H1N1 strain A/New Jersey/8/76 and A/H3N2 strain A/Victoria/361/11) were measured by standard hemagglutination inhibition assay (Kendal, A P et al. (1982) Concepts and procedures for laboratory-based influenza surveillance. Atlanta: Centers for Disease Control and Prevention B17-B35).
(§2) The ability of RAD001 to improve immune function in elderly volunteers was evaluated by measuring the serologic response to the 2012 seasonal influenza vaccine. The hemagglutination inhibition (HI) geometric mean titers (GMT) to each of the 3 influenza vaccine strains at baseline and 4 weeks after influenza vaccination are provided in Table 22. The primary analysis variable was the HI GMT ratio (4 weeks post vaccination/baseline). […] This endpoint was chosen because a 1.2-fold increase in the influenza GMT ratio induced by the MF-59 vaccine adjuvant was associated with a decrease in influenza illness (Iob, A et al. (2005) Epidemiol Infect 133:687-693).
(§3) Rates of seroconversion 4 weeks after influenza vaccination were also evaluated. Seroconversion was defined as the change from a negative pre-vaccination titer (i.e., HI titer <1:10) to post-vaccination HI titer ≥1:40 or at least 4-fold increase from a non-negative (≥1:10) pre-vaccination HI titer.

B/Brisbane/60/2008 = test: Clinical trial: hemagglutination inhibition titers and seroconversion, vaccine strain B; type: in vivo, human
Protocol: as §1, §2, §3

[3] = system: A/H3N2 strain A/Victoria/361/11; test: Clinical trial: HI titers and seroconversion, heterologous A/H3N2 strain; type: in vivo, human
[4] = system: PD-1 positive CD4 and CD8 T cells; test: Clinical trial: immunophenotyping of PBMC by flow cytometry; type: in vivo, human
[5] = Clinical trial: energy and exercise questionnaires one year after dosing; type: in vivo, human; conditions: 0.5 mg daily dosing cohort
[6] = system: Jurkat cells with NFAT-LUC reporter (JNL); test: Activation of RCAR half switches (intracellular FKBP/FRB) by RAD001, NFAT luciferase; type: cell-based; conditions: RCAR half switches with CD27, CD28, ICOS, OX40 or 41BB costimulatory domain; RAD001 50 nM
Protocol: Jurkat cells with NFAT-LUC reporter (JNL) were grown to the density of 0.5×10^6/ml in Jurkat cell growth media with puromycin at 0.5 μg/ml. For each transfection 2.5×10^6 cells were spin down at 100 g for 10 minutes. Two μg of DNA per construct were used per transfection. Amaxa Nucleofector solution V and supplement I was mixed and 100 μl was added into the tube with DNA construct. The mixture was then added to the cells and transferred to the electroporation cuvette. Electroporation was done under setting X-001 using Amaxa Nucleofector II Device. 0.5 ml of growth media was added immediately after electroporation and the mixture were transferred into 2 ml growth media in one well of the 6-well plate.
After one hour, RAD001 compound was delivered at 50 nM when testing RCARs with different costimulatory signaling domains (FIGS. 44A and 44B), or various concentrations: 0 nM, 0.01 nM, 0.03 nM, 0.1 nM, 0.3 nM, 1 nM, 3 nM, and 10 nM (FIGS. 45A and 45B). Tissue culture plate was coated with 5 μg/ml of anti anti-CD19 antibody or isotype control for 2 hrs, blocked with the blocking buffer (DPBS with 5% serum) for 1 hour. The transfected cells with or without RAD001 were resuspended and added to the target plate with 100 μl per well and incubated for 18 hrs. […] The samples were incubated for 5 min at 37° C. and then luminescence is measured using Envision plate reader.

[7] = cited from earlier work
[8] = Baseline (2 weeks prior to influenza vaccination), RAD001 0.5 mg daily, N = 50
[9] = Baseline (2 weeks prior to influenza vaccination), RAD001 5 mg weekly, N = 49
[10] = Intention to Treat Population, 0.5 mg, N = 48
[11] = Intention to Treat Population, 5 mg, N = 49
[12] = Intention to Treat Population, 20 mg, N = 48
[13] = Subjects with Baseline Titers <=40, 5 mg
[14] = Subjects with Baseline Titers <=40, 20 mg
[15] = Week 4 after influenza vaccination, RAD001 0.5 mg daily, N = 50
[16] = Week 4 after influenza vaccination, RAD001 5 mg weekly, N = 49
[17] = Week 4 after influenza vaccination, RAD001 20 mg weekly, N = 49

## CO[C@H]1C[C@@H]2CC[C@@H](C)[C@@](O)(O2)C(=O)C(=O)N2CCCC[C@H]2C(=O)O[C@H]([C@H](C)C[C@@H]2CC[C@@H](OCCO)[C@H](OC)C2)CC(=O)[C@H](C)/C=C(\C)[C@@H](O)[C@@H](OC)C(=O)[C@H](C)C[C@H](C)/C=C/C=C/C=C/1C [RAD001, (1R,9S,12S,15R,16E,18R,19R,21R,23S,24E,26E,28E,30S,32S,35R)-1,18-dihydroxy-12-{(1R)-2-[(1S,3R,4R)-4-(2-hydroxyethoxy)-3-methoxycyclohexyl]-1-methylethyl}-19,30-dimethoxy-15,17,21,23,29,35-hexamethyl-11,36-dioxa-4-aza-tricyclo[30.3.1.04,9]hexatriaconta-16,24,26,28-tetraene-2,3,10,14,20-pentaone]
[1]
  change from baseline to 4 weeks post vaccination in anti-H1N1 influenza IgG levels: No significant difference
  change from baseline to 4 weeks post vaccination in anti-H1N1 influenza IgM levels: No significant difference
JNL cells
  activation of RCAR (Construct 143775) over dimerization molecule concentration: effective at a broad range of concentrations
[2]; [8]
  HI GMT, A/H1N1: 102.8
[2]; [9]
  HI GMT, A/H1N1: 84.2
[2]; Baseline (2 weeks prior to influenza vaccination), RAD001 20 mg weekly, N = 49
  HI GMT, A/H1N1: 90.1
[2]; [10]
  Percent of subjects with seroconversion to influenza 4 weeks after vaccination, H1N1: 27%
[2]; [11]
  Percent of subjects with seroconversion to influenza 4 weeks after vaccination, H1N1: 27%
[2]; [12]
  Percent of subjects with seroconversion to influenza 4 weeks after vaccination, H1N1: 17%
[2]; RAD001 0.5 mg daily, N = 50
  GMT ratio (week 4 post vaccination/baseline), A/H1N1: 2.6
[2]; RAD001 5 mg weekly, N = 49
  GMT ratio (week 4 post vaccination/baseline), A/H1N1: 2.5
[2]; RAD001 20 mg weekly, N = 49
  GMT ratio (week 4 post vaccination/baseline), A/H1N1: 1.8
[2]; Subjects with Baseline Titers <=40, 0.5 mg
  Percent of subjects with seroconversion to influenza 4 weeks after vaccination, H1N1: 42%
[2]; [13]
  Percent of subjects with seroconversion to influenza 4 weeks after vaccination, H1N1: 45%
[2]; [14]
  Percent of subjects with seroconversion to influenza 4 weeks after vaccination, H1N1: 36%
[2]; [15]
  HI GMT, A/H1N1: 190.2
[2]; [16]
  HI GMT, A/H1N1: 198.73
[2]; [17]
  HI GMT, A/H1N1: 129.7
B/Brisbane/60/2008; [8]
  HI GMT, B: 44.2
B/Brisbane/60/2008; [9]
  HI GMT, B: 64.8
B/Brisbane/60/2008; [10]
  Percent of subjects with seroconversion to influenza 4 weeks after vaccination, B: 27%
B/Brisbane/60/2008; [11]
  Percent of subjects with seroconversion to influenza 4 weeks after vaccination, B: 22%
B/Brisbane/60/2008; [12]
  Percent of subjects with seroconversion to influenza 4 weeks after vaccination, B: 19%
B/Brisbane/60/2008; RAD001 0.5 mg daily, N = 50
  GMT ratio (week 4 post vaccination/baseline), B: 2.5
B/Brisbane/60/2008; RAD001 5 mg weekly, N = 49
  GMT ratio (week 4 post vaccination/baseline), B: 2.2
B/Brisbane/60/2008; RAD001 20 mg weekly, N = 49
  GMT ratio (week 4 post vaccination/baseline), B: 2.1
B/Brisbane/60/2008; Subjects with Baseline Titers <=40, 0.5 mg, * p-value < 0.05 versus placebo
  Percent of subjects with seroconversion to influenza 4 weeks after vaccination, B: 40* Percent
B/Brisbane/60/2008; [13]
  Percent of subjects with seroconversion to influenza 4 weeks after vaccination, B: 33%
B/Brisbane/60/2008; [14]
  Percent of subjects with seroconversion to influenza 4 weeks after vaccination, B: 28%
B/Brisbane/60/2008; [15]
  HI GMT, B: 98.4
B/Brisbane/60/2008; [16]
  HI GMT, B: 117.3
B/Brisbane/60/2008; [17]
  HI GMT, B: 99.2
[3]; RAD001 0.5 mg daily
  Percentage of subjects who seroconvert to heterologous strain 4 weeks after seasonal influenza vaccination, A/H3N2 strain: A/Victoria/361/11: 38%
[3]; RAD001 5 mg weekly, * p-value < 0.05 versus placebo
  Percentage of subjects who seroconvert to heterologous strain 4 weeks after seasonal influenza vaccination, A/H3N2 strain: A/Victoria/361/11: 39%*
[3]; RAD001 20 mg weekly, * p-value < 0.05 versus placebo
  Percentage of subjects who seroconvert to heterologous strain 4 weeks after seasonal influenza vaccination, A/H3N2 strain: A/Victoria/361/11: 40%*
[3]; RAD001 as compared to placebo cohorts
  increase in the HI GMT ratios for the heterologous strain: higher
[3]; pooled RAD001 cohorts, versus 20% placebo (p=0.007)
  H3N2 seroconversion rate, heterologous strain: 39%
[4]; RAD001 cohorts as compared to the placebo cohorts
  percentage of PD-1 negative CD4 T cells: increased
[4]; week 6 and 12, all RAD001 cohorts
  percentage of CD4 PD-1 positive T cells: decreased from baseline
[4]; week 6 and 12, the two lower dose RAD001 cohorts
  percentage of CD8 PD-1 positive cells: decreased from baseline
[5]
  self-reported energy and exercise ability compared to placebo: increased energy and exercise ability
[6]
  target-dependent NFAT activity: all able to activate the target-dependent NFAT activity
[7]; 10 mg daily oncology dosing regimen
  trough level of RAD001: approximately 20 ng/ml
[7]; 0.75-1.5 mg bid transplant dosing regimen
  trough level of RAD001: approximately 3 ng/ml
